This note sets out measurements from patent US12570695B2, “Bicyclic peptide ligands specific for EphA2” (priority 2019, dated 2026).

Starred links: 1 amine or outer side, 2 acyl side, 3 side chain; linkers in the order of their positions; H or OH if unused. Positions of bridges follow the written chain, without caps; N, C: chain ends. Non-standard residues stand in square brackets, D forms with d. Residues, ends and D or L forms follow the SMILES beside them. TATA = O=C(CC[*:1])N1CN(C(=O)CC[*:2])CN(C(=O)CC[*:3])C1; Dip = N[C@H](C(=O)O)C(c1ccccc1)c1ccccc1; 1Nal = N[C@@H](Cc1cccc2ccccc12)C(=O)O; Hyp = O=C(O)[C@@H]1C[C@@H](O)CN1; hArg = N=C(N)NCCCC[C@H](N)C(=O)O; NMeA = CN[C@@H](C)C(=O)O

The target in this assay is human EphA2 (Homo sapiens, UniProt P29317). The assay is described as follows: biochemical.
Sequence of human EphA2 (P29317 24-976): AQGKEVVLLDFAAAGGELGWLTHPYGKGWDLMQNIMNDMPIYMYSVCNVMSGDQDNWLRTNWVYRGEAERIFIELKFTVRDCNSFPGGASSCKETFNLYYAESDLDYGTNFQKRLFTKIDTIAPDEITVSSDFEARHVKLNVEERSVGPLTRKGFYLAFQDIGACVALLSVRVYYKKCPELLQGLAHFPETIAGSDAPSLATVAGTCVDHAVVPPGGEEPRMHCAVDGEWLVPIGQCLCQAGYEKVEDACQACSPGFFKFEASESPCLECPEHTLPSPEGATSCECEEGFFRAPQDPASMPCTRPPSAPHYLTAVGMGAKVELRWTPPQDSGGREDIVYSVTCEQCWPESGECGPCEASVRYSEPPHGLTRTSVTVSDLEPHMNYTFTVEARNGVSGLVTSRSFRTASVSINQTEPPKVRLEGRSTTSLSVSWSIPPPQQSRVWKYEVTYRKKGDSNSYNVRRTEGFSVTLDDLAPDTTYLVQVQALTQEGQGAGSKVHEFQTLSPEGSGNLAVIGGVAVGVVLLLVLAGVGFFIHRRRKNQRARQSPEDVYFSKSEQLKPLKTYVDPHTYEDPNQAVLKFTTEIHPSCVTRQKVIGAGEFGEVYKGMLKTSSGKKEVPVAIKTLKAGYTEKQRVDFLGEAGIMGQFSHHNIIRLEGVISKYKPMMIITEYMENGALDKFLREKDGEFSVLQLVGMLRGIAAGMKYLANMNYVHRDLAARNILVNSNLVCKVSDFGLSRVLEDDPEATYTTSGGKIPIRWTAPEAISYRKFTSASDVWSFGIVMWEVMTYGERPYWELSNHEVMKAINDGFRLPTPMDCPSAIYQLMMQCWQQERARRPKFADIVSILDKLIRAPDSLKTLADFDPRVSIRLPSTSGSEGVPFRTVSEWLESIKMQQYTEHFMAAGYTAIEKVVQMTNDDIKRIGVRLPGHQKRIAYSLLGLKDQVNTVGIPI
Protocol: Peptides without a fluorescent tag were tested in competition with a peptide with a fluorescent tag and a known Kd.
Peptides were diluted to an appropriate concentration in assay buffer as described in the direct binding assay with a maximum of 5% DMSO, then serially diluted 1 in 2. […] Measurements were conducted, however the gain was determined prior to the first measurement. Data analysis was in Systat Sigmaplot version 12.0 where the mP values were fit to a user defined cubic equation to generate a Ki value:
“Lig”, “KLig” and “Prot” were all defined values relating to: fluorescent peptide concentration, the Kd of the fluorescent peptide and EphA2 concentration respectively.
In turn, `CC(C)C[C@@H]1NC(=O)[C@@H]2CSCCC(=O)N3CN(CN(C3)C(=O)CCSC[C@H](N)C(=O)N3C[C@H](O)C[C@H]3C(=O)N[C@@H](CC(C)C)C(=O)N[C@@H](C(C)C)C(=O)N[C@@H](CC(N)=O)C(=O)N3CCC[C@H]3C(=O)N[C@@H](CC(C)C)C(=O)N2)C(=O)CCSC[C@@H](C(N)=O)NC(=O)[C@H]([C@@H](C)O)NC(=O)[C@H](Cc2c[nH]c3ccccc23)NC(=O)[C@@H](CC(=O)O)NC(=O)[C@@H]2CCCN2C(=O)[C@H](C(c2ccccc2)c2ccccc2)NC1=O` [BCY12860, Ci[HyP]LVNPLCiiL[3,3-DPA]P[dD]WTCiii] (H-C[Hyp]LVNPLCL[Dip]P[dD]WTC-NH2; linker 1-8-15 via TATA; N-terminus and C-terminus assumed) came in with an inhibition constant (Ki) of 0.66 nM.

Compound `CC(C)C[C@@H]1NC(=O)[C@@H]2CSCCC(=O)N3CN(CN(C3)C(=O)CCSC[C@H](NC(=O)[C@H](CC(=O)O)NC(=O)[C@H](CCCCNC(=N)N)NC(=O)[C@H](C)N)C(=O)N3C[C@H](O)C[C@H]3C(=O)N[C@@H](CC(C)C)C(=O)N[C@@H](C(C)C)C(=O)N[C@@H](CC(N)=O)C(=O)N3CCC[C@H]3C(=O)N[C@@H](CC(C)C)C(=O)N2)C(=O)CCSC[C@@H](C(N)=O)NC(=O)[C@H](CCCCNC(=N)N)NC(=O)[C@H](Cc2c[nH]c3ccccc23)NC(=O)[C@@H](CC(=O)O)NC(=O)[C@@H]2CCCN2C(=O)[C@H](CCC(N)=O)NC1=O` [BCY14048, A[HArg]DCi[HyP]LVNPLCiiLQP[dD]W[HArg]Ciii] (H-A[hArg]DC[Hyp]LVNPLCLQP[dD]W[hArg]C-NH2; linker 4-11-18 via TATA; N-terminus and C-terminus assumed) showed a Ki of 4.1 nM.

`CC(C)C[C@@H]1NC(=O)[C@@H]2CSCCC(=O)N3CN(CN(C3)C(=O)CCSC[C@H](NC(=O)[C@H](CC(=O)O)NC(=O)[C@H](CCCCNC(=N)N)NC(=O)[C@H](C)N)C(=O)N3C[C@H](O)C[C@H]3C(=O)N[C@@H](CC(C)C)C(=O)N[C@@H](C(C)C)C(=O)N[C@@H](CC(N)=O)C(=O)N3CCC[C@H]3C(=O)N[C@@H](CC(C)C)C(=O)N2)C(=O)CCSC[C@@H](C(N)=O)NC(=O)[C@H]([C@@H](C)O)NC(=O)[C@H](Cc2c[nH]c3ccccc23)NC(=O)[C@@H](CC(=O)O)NC(=O)[C@@H]2CCCN2C(=O)[C@H](Cc2c[nH]cn2)NC1=O` [BCY12855, A-[HArg]-D-Ci[HyP]LVNPLCiiLHP[dD]WTCiii] (H-A[hArg]DC[Hyp]LVNPLCLHP[dD]WTC-NH2; linker 4-11-18 via TATA; N-terminus and C-terminus assumed) displayed a Ki of 5.55 nM.

The compound `CN[C@@H](C)C(=O)N[C@@H](CCCCNC(=N)N)C(=O)N[C@@H](CC(=O)O)C(=O)N[C@H]1CSCCC(=O)N2CN3CN(C2)C(=O)CCSC[C@H](NC(=O)[C@H](CC(C)C)NC(=O)[C@@H]2CCCN2C(=O)[C@H](CC(N)=O)NC(=O)[C@H](C(C)C)NC(=O)[C@H](CC(C)C)NC(=O)[C@@H]2C[C@@H](O)CN2C1=O)C(=O)N[C@@H](CC(C)C)C(=O)N[C@@H](Cc1c[nH]cn1)C(=O)N1CCC[C@H]1C(=O)N[C@H](CC(=O)O)C(=O)N[C@@H](Cc1c[nH]c2ccccc12)C(=O)N[C@@H](CCCCNC(=N)N)C(=O)N[C@H](C(N)=O)CSCCC3=O` [BCY13121, [NMeAla]-[HArg]-D-Ci[HyP]LVNPLCiiLHP[dD]W[HArg]Ciii] (H-[NMeA][hArg]DC[Hyp]LVNPLCLHP[dD]W[hArg]C-NH2; linker 4-11-18 via TATA; N-terminus and C-terminus assumed) returned an inhibitory constant (Ki) of 1.49 nM. This Ki is about 3.7-fold lower than that of the compound before.

As for `CC(C)C[C@@H]1NC(=O)[C@@H]2CSCCC(=O)N3CN(CN(C3)C(=O)CCSC[C@H](N)C(=O)N3C[C@H](O)C[C@H]3C(=O)N[C@@H](CC(C)C)C(=O)N[C@@H](C(C)C)C(=O)N[C@@H](CC(N)=O)C(=O)N3CCC[C@H]3C(=O)N[C@@H](CC(C)C)C(=O)N2)C(=O)CCSC[C@@H](C(N)=O)NC(=O)[C@H]([C@@H](C)O)NC(=O)[C@H](Cc2c[nH]c3ccccc23)NC(=O)[C@@H](CC(=O)O)NC(=O)[C@@H]2CCCN2C(=O)[C@H](Cc2cccc3ccccc23)NC1=O` [BCY13119, Ci[HyP]LVNPLCiiL[1Nal]P[dD]WTCiii] (H-C[Hyp]LVNPLCL[1Nal]P[dD]WTC-NH2; linker 1-8-15 via TATA; N-terminus and C-terminus assumed), affinity was put at a Ki of 2.64 nM.
